The target in the test is T1, Recombinant human KIF18A (1-467His-tagged) protein (Homo sapiens, UniProt Q8NI77).
T1 construct: Recombinant human KIF18A (1-467His-tagged) protein; His; made in house
T1 sequence (Q8NI77 1-467): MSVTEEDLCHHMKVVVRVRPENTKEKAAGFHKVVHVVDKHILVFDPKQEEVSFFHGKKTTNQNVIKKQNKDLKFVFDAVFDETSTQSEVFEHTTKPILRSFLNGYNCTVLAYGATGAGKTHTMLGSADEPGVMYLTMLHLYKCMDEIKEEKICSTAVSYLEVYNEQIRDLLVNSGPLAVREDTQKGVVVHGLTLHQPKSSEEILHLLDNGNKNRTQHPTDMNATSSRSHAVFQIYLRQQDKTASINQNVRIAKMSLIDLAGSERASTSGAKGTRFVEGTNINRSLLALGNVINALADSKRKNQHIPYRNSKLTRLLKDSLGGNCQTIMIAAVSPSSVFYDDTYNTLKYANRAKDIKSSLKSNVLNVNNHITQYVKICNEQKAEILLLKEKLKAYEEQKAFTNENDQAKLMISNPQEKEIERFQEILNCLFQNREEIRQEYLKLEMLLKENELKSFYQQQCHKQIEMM
T1 sequence (P02550 whole entry partner): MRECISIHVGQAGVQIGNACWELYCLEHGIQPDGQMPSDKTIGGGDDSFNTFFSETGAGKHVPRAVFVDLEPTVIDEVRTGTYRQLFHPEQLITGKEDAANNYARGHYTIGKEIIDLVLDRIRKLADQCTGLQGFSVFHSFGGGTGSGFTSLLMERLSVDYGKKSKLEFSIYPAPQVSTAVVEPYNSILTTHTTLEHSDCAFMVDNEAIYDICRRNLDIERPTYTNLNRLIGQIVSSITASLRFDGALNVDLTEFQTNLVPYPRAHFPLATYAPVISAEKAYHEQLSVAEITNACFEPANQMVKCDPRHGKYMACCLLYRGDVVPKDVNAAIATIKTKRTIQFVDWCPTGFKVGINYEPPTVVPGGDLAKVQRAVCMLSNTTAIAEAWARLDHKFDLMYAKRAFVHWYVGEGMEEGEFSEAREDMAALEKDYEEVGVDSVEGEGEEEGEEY
T1 sequence (P02554 whole entry partner): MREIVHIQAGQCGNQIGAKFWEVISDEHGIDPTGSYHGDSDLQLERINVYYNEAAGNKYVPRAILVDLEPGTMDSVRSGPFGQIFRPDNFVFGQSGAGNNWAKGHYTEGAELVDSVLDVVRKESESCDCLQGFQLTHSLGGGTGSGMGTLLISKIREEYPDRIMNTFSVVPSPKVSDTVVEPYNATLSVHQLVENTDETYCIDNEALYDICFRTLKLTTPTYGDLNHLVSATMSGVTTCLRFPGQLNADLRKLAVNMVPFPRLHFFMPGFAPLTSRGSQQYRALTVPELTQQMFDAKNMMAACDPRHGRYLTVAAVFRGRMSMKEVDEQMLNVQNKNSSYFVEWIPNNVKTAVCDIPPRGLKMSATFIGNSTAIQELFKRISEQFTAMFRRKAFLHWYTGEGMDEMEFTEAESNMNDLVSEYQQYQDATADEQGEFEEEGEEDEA
Briefly: KIF18A enzyme assay (microtubule-stimulated ATPase activity, ADP-Glo). Type of test: biochemical. The note with it: 30 nM KIF18A, 75 μM ATP, 30 μg/mL pig microtubules; read-out: Inhibitory activity against KIF18A IC50. An outline of the steps:
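Buffer 15 mM Tris pH 7.5, 10 mM MgCl2, 0.01% Pluronic F-68, 1 μM paclitaxel, 30 μg/mL pig microtubules; reactions at room temperature. IC50 from inhibition relative to DMSO.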
`C[C@H]1CN(c2nc(C(=O)Nc3ccc(NS(=O)(=O)CCO)cc3N3CCC4(CC3)CC4)ccc2[N+](=O)[O-])CCO1` [Compound 163]: the IC50 is not above 100 nM.
Take `O=C(Nc1ccc(NS(=O)(=O)CCO)cc1N1CCC2(CC1)CC2)c1ccc([N+](=O)[O-])c(N2CC(F)(F)C2)n1` [Compound 164]: the half-inhibitory concentration (IC50) was not above 100 nM.
As to `O=C(Nc1ccc(NS(=O)(=O)CCO)cc1N1CCC2(CC1)CC2)c1ccc([N+](=O)[O-])c(OCCC(F)(F)F)n1` [Compound 165], the IC50 is not above 100 nM.
As to `O=C(Nc1ccc(NS(=O)(=O)CCO)cc1N1CCC2(CC1)CC2)c1ccc([N+](=O)[O-])c(N2CCC3(CC3)C2)n1` [Compound 166], the IC50 was not above 100 nM.
Turning to `O=C(Nc1ccc(NS(=O)(=O)CCO)cc1N1CCC2(CC1)CC2)c1ccc([N+](=O)[O-])c(OC2CCC2)n1` [Compound 167], the IC50 was not above 100 nM.
In the case of `CC1(F)CCN(c2nc(C(=O)Nc3ccc(NS(=O)(=O)CCO)cc3N3CCC4(CC3)CC4)ccc2[N+](=O)[O-])C1` (stereo not drawn) [Compound 168] it was not above 100 nM; in that of `O=C(Nc1ccc(NS(=O)(=O)CCO)cc1N1CCC2(CC1)CC2)c1ccc([N+](=O)[O-])c(N2CCC(F)CC2)n1` [Compound 169], not above 100 nM; in that of `O=C(Nc1ccc(NS(=O)(=O)CCO)cc1N1CCC2(CC1)CC2)c1ccc([N+](=O)[O-])c(N2CC3CC3C2)n1` (stereo not drawn) [Compound 170], not above 100 nM.
As for `CC(C)(CO)Nc1nc(C(=O)Nc2ccc(NS(=O)(=O)CCO)cc2N2CCC3(CC2)CC3)ccc1[N+](=O)[O-]` [Compound 171], the IC50 was not above 100 nM.
In the case of `O=C(Nc1ccc(NS(=O)(=O)CCO)cc1N1CCC2(CC1)CC2)c1ccc([N+](=O)[O-])c(N2CCOCC2)n1` [Compound 172], the 50% inhibitory concentration (IC50) was not above 100 nM.
Turning to `C[C@@H](CO)S(=O)(=O)Nc1ccc(NC(=O)c2ccc([N+](=O)[O-])c(N3CCC(F)(F)CC3)n2)c(N2CCC3(CC2)CC3)c1` [Compound 173], the half-maximal inhibitory concentration (IC50) was not above 100 nM.
Turning to `C[C@H](CO)S(=O)(=O)Nc1ccc(NC(=O)c2ccc([N+](=O)[O-])c(N3CCC(F)(F)CC3)n2)c(N2CCC3(CC2)CC3)c1` [Compound 174], the IC50 is not above 100 nM.
Regarding `C[C@@H]1CN(c2nc(C(=O)Nc3ccc(NS(=O)(=O)[C@@H](C)CO)cc3N3CCC4(CC3)CC4)ccc2[N+](=O)[O-])CCO1` [Compound 175], the concentration for half-maximal inhibition (IC50) was not above 100 nM.
Consider `C[C@@H]1CN(c2nc(C(=O)Nc3ccc(NS(=O)(=O)[C@H](C)CO)cc3N3CCC4(CC3)CC4)ccc2[N+](=O)[O-])CCO1` [Compound 176], for which the IC50 was not above 100 nM.
As for `O=C(Nc1ccc(S(=O)(=O)NCCO)cc1N1CCC2(CC1)CC2)c1ccc([N+](=O)[O-])c(N2CCC(F)(F)CC2)n1` [Compound 177], the half-inhibitory concentration (IC50) is 100 to 500 nM.
Regarding `C[C@@H]1CN(c2nc(C(=O)Nc3ccc(S(=O)(=O)NCCO)cc3N3CCC4(CC3)CC4)ccc2[N+](=O)[O-])CCO1` [Compound 178], the IC50 was 100 to 500 nM.
Regarding `C[C@H]1CN(c2nc(C(=O)Nc3ccc(S(=O)(=O)NCCO)cc3N3CCC4(CC3)CC4)ccc2[N+](=O)[O-])CCO1` [Compound 179], the IC50 was in the range of 100 to 500 nM.
Then `O=C(Nc1ccc(S(=O)(=O)NCCO)cc1N1CCC2(CC1)CC2)c1ccc([N+](=O)[O-])c(N2CC(F)(F)C2)n1` [Compound 180], with 100 to 500 nM.
Then `O=C(Nc1ccc(S(=O)(=O)NCCO)cc1N1CCC2(CC1)CC2)c1ccc([N+](=O)[O-])c(OCCC(F)(F)F)n1` [Compound 181], with 100 to 500 nM; and `O=C(Nc1ccc(S(=O)(=O)NCCO)cc1N1CCC2(CC1)CC2)c1ccc([N+](=O)[O-])c(N2CCC3(CC3)C2)n1` [Compound 182], with 100 to 500 nM; and `O=C(Nc1ccc(S(=O)(=O)NCCO)cc1N1CCC2(CC1)CC2)c1ccc([N+](=O)[O-])c(OC2CCC2)n1` [Compound 183], with 100 to 500 nM.
Turning to `CC1(F)CCN(c2nc(C(=O)Nc3ccc(S(=O)(=O)NCCO)cc3N3CCC4(CC3)CC4)ccc2[N+](=O)[O-])C1` (stereo not drawn) [Compound 184], the IC50 lay in the range of 100 to 500 nM.
In the case of `O=C(Nc1ccc(S(=O)(=O)NCCO)cc1N1CCC2(CC1)CC2)c1ccc([N+](=O)[O-])c(N2CCC(F)CC2)n1` [Compound 185] it was 100 to 500 nM; in that of `O=C(Nc1ccc(S(=O)(=O)NCCO)cc1N1CCC2(CC1)CC2)c1ccc([N+](=O)[O-])c(N2CC3CC3C2)n1` (stereo not drawn) [Compound 186], 100 to 500 nM.
In the case of `CC(C)(CO)Nc1nc(C(=O)Nc2ccc(S(=O)(=O)NCCO)cc2N2CCC3(CC2)CC3)ccc1[N+](=O)[O-]` [Compound 187] it was 100 to 500 nM; in that of `O=C(Nc1ccc(S(=O)(=O)NCCO)cc1N1CCC2(CC1)CC2)c1ccc([N+](=O)[O-])c(N2CCOCC2)n1` [Compound 188], 100 to 500 nM; in that of `C[C@@H](CO)NS(=O)(=O)c1ccc(NC(=O)c2ccc([N+](=O)[O-])c(N3CCC(F)(F)CC3)n2)c(N2CCC3(CC2)CC3)c1` [Compound 189], 100 to 500 nM.
On to `C[C@H](CO)NS(=O)(=O)c1ccc(NC(=O)c2ccc([N+](=O)[O-])c(N3CCC(F)(F)CC3)n2)c(N2CCC3(CC2)CC3)c1` [Compound 190], for which the IC50 is 100 to 500 nM.
In the case of `C[C@@H]1CN(c2nc(C(=O)Nc3ccc(S(=O)(=O)N[C@@H](C)CO)cc3N3CCC4(CC3)CC4)ccc2[N+](=O)[O-])CCO1` [Compound 191] it was 100 to 500 nM; in that of `C[C@H](CO)NS(=O)(=O)c1ccc(NC(=O)c2ccc([N+](=O)[O-])c(N3CCO[C@H](C)C3)n2)c(N2CCC3(CC2)CC3)c1` [Compound 192], 100 to 500 nM; in that of `O=C(Nc1cnc(NS(=O)(=O)CCO)cc1N1CCC2(CC1)CC2)c1ccc([N+](=O)[O-])c(N2CCC(F)(F)CC2)c1` [Compound 193], not above 100 nM.
Then `C[C@@H]1CN(c2cc(C(=O)Nc3cnc(NS(=O)(=O)CCO)cc3N3CCC4(CC3)CC4)ccc2[N+](=O)[O-])CCO1` [Compound 194], with not above 100 nM; and `C[C@H]1CN(c2cc(C(=O)Nc3cnc(NS(=O)(=O)CCO)cc3N3CCC4(CC3)CC4)ccc2[N+](=O)[O-])CCO1` [Compound 195], with not above 100 nM; and `O=C(Nc1cnc(NS(=O)(=O)CCO)cc1N1CCC2(CC1)CC2)c1ccc([N+](=O)[O-])c(N2CC(F)(F)C2)c1` [Compound 196], with not above 100 nM.
Then `O=C(Nc1cnc(NS(=O)(=O)CCO)cc1N1CCC2(CC1)CC2)c1ccc([N+](=O)[O-])c(OCCC(F)(F)F)c1` [Compound 197], with not above 100 nM; and `O=C(Nc1cnc(NS(=O)(=O)CCO)cc1N1CCC2(CC1)CC2)c1ccc([N+](=O)[O-])c(N2CCC3(CC3)C2)c1` [Compound 198], with not above 100 nM; and `O=C(Nc1cnc(NS(=O)(=O)CCO)cc1N1CCC2(CC1)CC2)c1ccc([N+](=O)[O-])c(OC2CCC2)c1` [Compound 199], with not above 100 nM.
Turning to `CC1(F)CCN(c2cc(C(=O)Nc3cnc(NS(=O)(=O)CCO)cc3N3CCC4(CC3)CC4)ccc2[N+](=O)[O-])C1` (stereo not drawn) [Compound 200], the 50% inhibitory concentration (IC50) is not above 100 nM.
As for `O=C(Nc1cnc(NS(=O)(=O)CCO)cc1N1CCC2(CC1)CC2)c1ccc([N+](=O)[O-])c(N2CCC(F)CC2)c1` [Compound 201], the IC50 was not above 100 nM.
In the case of `O=C(Nc1cnc(NS(=O)(=O)CCO)cc1N1CCC2(CC1)CC2)c1ccc([N+](=O)[O-])c(N2CC3CC3C2)c1` (stereo not drawn) [Compound 202] it was not above 100 nM; in that of `CC(C)(CO)Nc1cc(C(=O)Nc2cnc(NS(=O)(=O)CCO)cc2N2CCC3(CC2)CC3)ccc1[N+](=O)[O-]` [Compound 203], not above 100 nM; in that of `O=C(Nc1cnc(NS(=O)(=O)CCO)cc1N1CCC2(CC1)CC2)c1ccc([N+](=O)[O-])c(N2CCOCC2)c1` [Compound 204], not above 100 nM.
Consider `C[C@@H](CO)S(=O)(=O)Nc1cc(N2CCC3(CC2)CC3)c(NC(=O)c2ccc([N+](=O)[O-])c(N3CCC(F)(F)CC3)c2)cn1` [Compound 205], for which the half-maximal inhibitory concentration (IC50) is not above 100 nM.
For `C[C@H](CO)S(=O)(=O)Nc1cc(N2CCC3(CC2)CC3)c(NC(=O)c2ccc([N+](=O)[O-])c(N3CCC(F)(F)CC3)c2)cn1` [Compound 206], the IC50 was not above 100 nM.
In the case of `C[C@@H]1CN(c2cc(C(=O)Nc3cnc(NS(=O)(=O)[C@@H](C)CO)cc3N3CCC4(CC3)CC4)ccc2[N+](=O)[O-])CCO1` [Compound 207] it was not above 100 nM; in that of `C[C@@H]1CN(c2cc(C(=O)Nc3cnc(NS(=O)(=O)[C@H](C)CO)cc3N3CCC4(CC3)CC4)ccc2[N+](=O)[O-])CCO1` [Compound 208], not above 100 nM.
For the molecule `O=C(Nc1cnc(S(=O)(=O)NCCO)cc1N1CCC2(CC1)CC2)c1ccc([N+](=O)[O-])c(N2CCC(F)(F)CC2)c1` [Compound 209], the IC50 is 100 to 500 nM.
Then `C[C@@H]1CN(c2cc(C(=O)Nc3cnc(S(=O)(=O)NCCO)cc3N3CCC4(CC3)CC4)ccc2[N+](=O)[O-])CCO1` [Compound 210], with 100 to 500 nM; and `C[C@H]1CN(c2cc(C(=O)Nc3cnc(S(=O)(=O)NCCO)cc3N3CCC4(CC3)CC4)ccc2[N+](=O)[O-])CCO1` [Compound 211], with 100 to 500 nM; and `O=C(Nc1cnc(S(=O)(=O)NCCO)cc1N1CCC2(CC1)CC2)c1ccc([N+](=O)[O-])c(N2CC(F)(F)C2)c1` [Compound 212], with 100 to 500 nM.
Then `O=C(Nc1cnc(S(=O)(=O)NCCO)cc1N1CCC2(CC1)CC2)c1ccc([N+](=O)[O-])c(OCCC(F)(F)F)c1` [Compound 213], with 100 to 500 nM; and `O=C(Nc1cnc(S(=O)(=O)NCCO)cc1N1CCC2(CC1)CC2)c1ccc([N+](=O)[O-])c(N2CCC3(CC3)C2)c1` [Compound 214], with 100 to 500 nM; and `O=C(Nc1cnc(S(=O)(=O)NCCO)cc1N1CCC2(CC1)CC2)c1ccc([N+](=O)[O-])c(OC2CCC2)c1` [Compound 215], with 100 to 500 nM.
As to `CC1(F)CCN(c2cc(C(=O)Nc3cnc(S(=O)(=O)NCCO)cc3N3CCC4(CC3)CC4)ccc2[N+](=O)[O-])C1` (stereo not drawn) [Compound 216], the concentration for half-maximal inhibition (IC50) is 100 to 500 nM.

Broadly, the IC50 is the concentration that inhibits the measured activity by half.

The record behind these values is patent US20260158017A1, “KIF18A INHIBITOR” (WIGEN BIOMEDICINE TECHNOLOGY (SHANGHAI) CO., LTD., priority 2021, published 2026).
